Data reported in PubChem BioAssay AID686920 (Broad Institute, 2013).

The molecules below were run on A673 NR0B1-luciferase reporter, viability-normalised luminescence (assay: NR0B1 reporter signal reduction in A673 cells – cell-based, luciferase luminescence, cherry-pick, EWS/Fli inhibitor project, dose response (AID 686920)).
Work on `CCCCCCCCCCCCCCCCn1cc[n+](C)c1` yielded an AC35 of 10.3 µM. With `CC1(C)N=C(N)N=C(N)N1c1ccc(CCCCc2ccccc2)cc1` the AC35 was 2.72 µM. Molecule `CCCN1C/C(=C/c2ccc3c(c2)OCO3)C(=O)/C(=C/c2ccc3c(c2)OCO3)C1` has an AC35 of 3.4 µM. Work on `N#C[C@H]1[C@H](c2ccc(C#Cc3ccccc3F)cc2)[C@@H](CO)N1C(=O)C1CCCCC1` yielded an AC35 of 19.5 µM. Molecule `C[C@@H]1CN([C@@H](C)CO)C(=O)c2cc(N(C)C)ccc2O[C@H]1CN(C)Cc1ccc(C(=O)Nc2ccccc2N)cc1` has an AC35 of 12.7 µM. With `C[C@@H]1CN([C@@H](C)CO)C(=O)Cc2cc(NC(=O)C3CCCCC3)ccc2O[C@H]1CN(C)Cc1ccc(C(=O)Nc2ccccc2N)cc1` the AC35 was 29.1 µM. For `C[C@@H]1CN([C@@H](C)CO)C(=O)c2cccc(NC(=O)Nc3cccc4ccccc34)c2O[C@@H]1CN(C)Cc1ccc(C(=O)Nc2ccccc2N)cc1`, the AC35 was 10.2 µM. With `COc1ccc(-c2nc3c(s2)CCc2onc(-c4ccc(OC)cc4)c2-3)cc1` the AC35 was 7.59 µM. In the case of `CCn1c(C)cc(C(=O)CN2C(=O)c3ccccc3S2(=O)=O)c1C`, the AC35 is reported as 1.23 µM. `C[C@]12CC[C@H](O)C[C@H]1CC[C@@H]1[C@@H]2CC[C@]2(C)[C@@H](C3=CC(=O)OC3)CC[C@]12O` gave an AC35 of 0.395 µM. In the case of `Nc1nc(=S)c2[nH]cnc2[nH]1`, the AC35 is reported as 2.5 µM. In the case of `C[C@]12CC[C@H](O)C[C@H]1CC[C@@H]1C2CC[C@]2(C)[C@@H](C3=CC(=O)OC3)[C@@H](O)C[C@]12O` (stereo partly specified), the AC35 is reported as 2.86 µM. `CCCc1cc(=O)oc2c3c(c4c(c12)OC(C)(C)C=C4)OC(C)C(C)C3O` (stereo unspecified) gave an AC35 of 33.3 µM. Molecule `CC1OC(OC2CC(O)C3(CO)C4C(O)CC5(C)C(C6=CC(=O)OC6)CCC5(O)C4CCC3(O)C2)C(O)C(O)C1O` (stereo unspecified) has an AC35 of 0.0738 µM. `CO[C@H]1CN(C)C(=O)c2cc(NC(=O)c3ccc(Oc4ccccc4)cc3)ccc2OC[C@H](C)NC[C@@H]1C` gave an AC35 of 26.5 µM. In the case of `COC(=O)C[C@@H]1CC[C@@H]2[C@H](COc3ccc(NC(=O)c4ccccc4)cc3C(=O)N2C)O1`, the AC35 is reported as 53.4 µM. Molecule `Cc1ccc(S(=O)(=O)Nc2ccc3c(c2)C(=O)N([C@@H](C)CO)C[C@@H](C)[C@H](CN(C)Cc2ccc(C(F)(F)F)cc2)OCCCC[C@H](C)O3)cc1` has an AC35 of 7.44 µM. With `CC(=O)OC1CC(OC2C(O)CC(OC3C(O)CC(OC4CCC5(C)C(CCC6C5CCC5(C)C(C7=CC(=O)OC7)C(O)CC65O)C4)OC3C)OC2C)OC(C)C1OC1OC(CO)C(O)C(O)C1O` (stereo unspecified) the AC35 was 0.812 µM. `N#C[C@@H]1[C@H](c2ccc(C#Cc3ccc(F)cc3)cc2)[C@@H](CO)N1C(=O)Nc1ccc(F)cc1` was tested, and the AC35 was 5.54 µM. `COc1cc(/C=N/NS(=O)(=O)c2ccc3ccccc3c2)ccc1OCc1ccc(C(=O)O)cc1` was tested, and the AC35 was 2.91 µM. Work on `COc1cc2c(cc1OC)C(C)N(C(=O)c1cc(Cl)nc(Cl)c1)CC2` (stereo unspecified) yielded an AC35 of 6.06 µM. `Cc1cc(C)cc(C(=O)NC(=S)Nc2ccc(Cc3ccncc3)cc2)c1` showed an AC35 of 7.99 µM. In the case of `COc1cccc(-c2cccc(-c3nc(C(=O)NCC(F)(F)F)cc4c3[C@H](CCO)N([S@@](=O)C(C)(C)C)C4)c2)c1`, the AC35 is reported as 3.19 µM. In the case of `COc1ccc(-c2cc(CNc3nc(NC(C)C)nc4cc(-c5ccccc5)sc34)on2)cc1`, the AC35 is reported as 15.7 µM. In the case of `O=C(NCc1ccc(F)cc1)N1[C@H]2CC[C@@H]1C=C(c1ccc(F)cc1OCc1ccccc1)C2`, the AC35 is reported as 9.93 µM. `COc1ccc(C2=NNC(=Nc3cc(S(=O)(=O)N(C)C)ccc3C)SC2)c(OC)c1` gave an AC35 of 9.53 µM. For `O=c1[nH]c(=O)n([C@H]2C[C@H](O)[C@@H](CO)O2)cc1F`, the AC35 was 2.63 µM. Work on `COc1ccc(CC(N)c2csc(NC(=O)Nc3cccc(C(F)(F)F)c3)n2)cc1` (stereo unspecified) yielded an AC35 of 9.72 µM. Molecule `COc1cccc(Sc2ccccc2/C=N/NC(N)=O)c1` has an AC35 of 2.17 µM. Work on `Cc1cccc(CN2C(=O)/C(=C\c3ccc(C(=O)NCCCN4CCN(C)CC4)cc3)Oc3ccccc32)c1` yielded an AC35 of 11.6 µM. `C[C@H]1CN([C@@H](C)CO)C(=O)c2cc(N(C)C)ccc2O[C@H]1CN(C)Cc1ccc(C(=O)Nc2ccccc2N)cc1` was tested, and the AC35 was 15 µM. In the case of `C[C@]12CC[C@H](O)C[C@H]1CC[C@@H]1[C@@H]2C[C@@H](O)[C@]2(C)[C@@H](C3=CC(=O)OC3)CC[C@]12O`, the AC35 is reported as 1 µM. Work on `CCCC[C@@H]1Cc2[nH][nH]c(=O)c2[C@H](c2ccc3ccccc3c2)O1` yielded an AC35 of 11.8 µM. `O=C1/C(=C\c2ccccc2)CN(C(=O)CCN2CCCCC2)C/C1=C/c1ccccc1` gave an AC35 of 2.54 µM. For `COc1ccccc1C(CCNCc1ccc(N(C)C)cc1)c1ccc(OC(C)C)cc1` (stereo unspecified), the AC35 was 24.9 µM. `O=c1c2ccccc2nc(/C=C/c2cc(Br)ccc2O)n1CCCO` showed an AC35 of 23.9 µM. Work on `C[C@@H]1CN([C@H](C)CO)C(=O)c2cc(NC(=O)CCCCCC(=O)Nc3ccccc3N)ccc2O[C@H]1CN(C)S(=O)(=O)c1ccc(Cl)cc1` yielded an AC35 of 35.2 µM. `CC(=O)OC1CC(OC2C(O)CC(OC3C(O)CC(OC4CCC5(C)C(CCC6C5CCC5(C)C(C7=CC(=O)OC7)CCC65O)C4)OC3C)OC2C)OC(C)C1OC1OC(CO)C(O)C(O)C1O` (stereo unspecified) was tested, and the AC35 was 0.0893 µM. `CCc1nc(N)nc(N)c1-c1ccc(Cl)c(N=[N+]=[N-])c1` was tested, and the AC35 was 6.23 µM. `O=C(Sc1cccc2cccnc12)c1ccccc1Br` gave an AC35 of 16.6 µM. Work on `CCc1cnc(N2[C@H](C#N)[C@H](c3ccc(C#Cc4ccccc4F)cc3)[C@H]2CO)s1` yielded an AC35 of 9.23 µM. Molecule `COc1cc(OC)cc(-c2cc3nc(C)c(CCC(=O)O)c(C)n3n2)c1` has an AC35 of 0.243 µM. With `O=C(Nc1cccc(S(=O)(=O)N2CCCC2)c1)c1ccc(Cl)nc1` the AC35 was 8.45 µM. `Nc1sc(-c2ccccc2)cc1-c1n[nH]c(=S)n1C1CCCCC1` gave an AC35 of 3.67 µM. `O=C(O)c1ccc(N/N=C/c2ccc3nccnc3c2)cc1` showed an AC35 of 0.993 µM. `C[C@@H]1CN([C@@H](C)CO)C(=O)c2cccc(NS(=O)(=O)c3ccc(F)cc3)c2O[C@@H]1CN(C)Cc1ccc(C(=O)Nc2ccccc2N)cc1` showed an AC35 of 6.97 µM.
